Measurements as given in publication PMC12132946, “Isoflurane activates the type 1 ryanodine receptor to induce anesthesia in mice” (PLOS Biology, 2025).
pEC50: −log10 of the molar value.

Experiments:
[1] = molecular target: T1, type 1 ryanodine receptor (RyR1) (Oryctolagus cuniculus, UniProt P11716); assay: intracellular calcium (Cal-520) assay in HEK […] cells with tetracycline-induced RyR1; chimeras and point mutants; format: cell-based; parameters: full-length rabbit RyR1; RyR1 Q3889-S4213 necessary and sufficient for the response
mouse RyR1(WT) = molecular target: T2, mouse RyR1(WT) (Mus musculus, UniProt E9PZQ0); assay: intracellular calcium assay in HEK […] cells; response lost in M4003F; format: cell-based
T2 construct: full-length mouse RyR1

[2] = molecular target: T1, type 1 ryanodine receptor (RyR1); assay: intracellular calcium assay in HEK […] stable cell line; response lost in M4000F; format: cell-based; parameters: full-length rabbit RyR1
[3] = molecular target: T1, type 1 ryanodine receptor (RyR1); assay: intracellular calcium assay in HEK […] stable cell line; format: cell-based; parameters: full-length rabbit RyR1
[4] = molecular target: T1, type 1 ryanodine receptor (RyR1); assay: intracellular calcium assay in HEK […] stable cell line; compared with M4000F; format: cell-based; parameters: full-length rabbit RyR1(WT)
[5] = molecular target: T1, type 1 ryanodine receptor (RyR1); assay: cell-based; parameters: full-length rabbit RyR1; species or system HEK 293; fluorescent calcium indicator assay, peak Fmax/F0, tetracycline-induced RyR1 expression, 384-well plate
Method: There are three isoforms of RyRs in mammals (RyR1, RyR2, and RyR3). To systematically examine the pharmacological properties of each isoform, we used HEK 293 cell lines that express rabbit isoforms under tetracycline regulation. These cells were seeded in a 384-well plate and subjected to an assay in which the intracellular calcium levels were measured using a fluorescent calcium indicator upon drug administration (Fig 1B and 1C). While caffeine is a stimulant that antagonizes the adenosine receptors (IC50s on adenosine receptors are ~10 μM), it is also a typical agonist of RyRs activating all isoforms at higher dosages. Caffeine administration caused dose-dependent increases in intracellular calcium levels depending on the tetracycline-mediated expression of each isoform (Figs 1D–1F and S1A). We observed that, while caffeine causes calcium elevation in the nonexpressed controls, most likely due to the presence of endogenous RyRs in HEK 293 cells, the distinct signals in the expressed conditions indicate that each isoform is successfully expressed as functional channels. Supplementary file pbio.3003172.s001.pdf: S1 Fig Increased intracellular calcium by isoflurane is derived from intracellular calcium stores. […] Each agent was given after measuring the baseline fluorescence for 10 s, as indicated by arrows. […]

[6] = molecular target: T1, type 1 ryanodine receptor (RyR1); assay: intracellular calcium assay in HEK […] cells; selectivity over M4000F; format: cell-based; parameters: full-length rabbit RyR1
[7] = molecular target: T1, type 1 ryanodine receptor (RyR1); assay: intracellular calcium assay in HEK […] cells with RyR1 WT and point mutants; format: cell-based; parameters: full-length rabbit RyR1
[8] = molecular target: T1, type 1 ryanodine receptor (RyR1); assay: intracellular calcium assay in HEK […] stable cell lines; selective over M4000F, RyR2, RyR3; format: cell-based; parameters: full-length rabbit RyR1(WT)
[9] = molecular target: T1, type 1 ryanodine receptor (RyR1); assay: intracellular calcium assay in HEK […] cells; caffeine-site point mutants; format: cell-based; parameters: full-length rabbit RyR1

T1 sequence (P11716 whole entry): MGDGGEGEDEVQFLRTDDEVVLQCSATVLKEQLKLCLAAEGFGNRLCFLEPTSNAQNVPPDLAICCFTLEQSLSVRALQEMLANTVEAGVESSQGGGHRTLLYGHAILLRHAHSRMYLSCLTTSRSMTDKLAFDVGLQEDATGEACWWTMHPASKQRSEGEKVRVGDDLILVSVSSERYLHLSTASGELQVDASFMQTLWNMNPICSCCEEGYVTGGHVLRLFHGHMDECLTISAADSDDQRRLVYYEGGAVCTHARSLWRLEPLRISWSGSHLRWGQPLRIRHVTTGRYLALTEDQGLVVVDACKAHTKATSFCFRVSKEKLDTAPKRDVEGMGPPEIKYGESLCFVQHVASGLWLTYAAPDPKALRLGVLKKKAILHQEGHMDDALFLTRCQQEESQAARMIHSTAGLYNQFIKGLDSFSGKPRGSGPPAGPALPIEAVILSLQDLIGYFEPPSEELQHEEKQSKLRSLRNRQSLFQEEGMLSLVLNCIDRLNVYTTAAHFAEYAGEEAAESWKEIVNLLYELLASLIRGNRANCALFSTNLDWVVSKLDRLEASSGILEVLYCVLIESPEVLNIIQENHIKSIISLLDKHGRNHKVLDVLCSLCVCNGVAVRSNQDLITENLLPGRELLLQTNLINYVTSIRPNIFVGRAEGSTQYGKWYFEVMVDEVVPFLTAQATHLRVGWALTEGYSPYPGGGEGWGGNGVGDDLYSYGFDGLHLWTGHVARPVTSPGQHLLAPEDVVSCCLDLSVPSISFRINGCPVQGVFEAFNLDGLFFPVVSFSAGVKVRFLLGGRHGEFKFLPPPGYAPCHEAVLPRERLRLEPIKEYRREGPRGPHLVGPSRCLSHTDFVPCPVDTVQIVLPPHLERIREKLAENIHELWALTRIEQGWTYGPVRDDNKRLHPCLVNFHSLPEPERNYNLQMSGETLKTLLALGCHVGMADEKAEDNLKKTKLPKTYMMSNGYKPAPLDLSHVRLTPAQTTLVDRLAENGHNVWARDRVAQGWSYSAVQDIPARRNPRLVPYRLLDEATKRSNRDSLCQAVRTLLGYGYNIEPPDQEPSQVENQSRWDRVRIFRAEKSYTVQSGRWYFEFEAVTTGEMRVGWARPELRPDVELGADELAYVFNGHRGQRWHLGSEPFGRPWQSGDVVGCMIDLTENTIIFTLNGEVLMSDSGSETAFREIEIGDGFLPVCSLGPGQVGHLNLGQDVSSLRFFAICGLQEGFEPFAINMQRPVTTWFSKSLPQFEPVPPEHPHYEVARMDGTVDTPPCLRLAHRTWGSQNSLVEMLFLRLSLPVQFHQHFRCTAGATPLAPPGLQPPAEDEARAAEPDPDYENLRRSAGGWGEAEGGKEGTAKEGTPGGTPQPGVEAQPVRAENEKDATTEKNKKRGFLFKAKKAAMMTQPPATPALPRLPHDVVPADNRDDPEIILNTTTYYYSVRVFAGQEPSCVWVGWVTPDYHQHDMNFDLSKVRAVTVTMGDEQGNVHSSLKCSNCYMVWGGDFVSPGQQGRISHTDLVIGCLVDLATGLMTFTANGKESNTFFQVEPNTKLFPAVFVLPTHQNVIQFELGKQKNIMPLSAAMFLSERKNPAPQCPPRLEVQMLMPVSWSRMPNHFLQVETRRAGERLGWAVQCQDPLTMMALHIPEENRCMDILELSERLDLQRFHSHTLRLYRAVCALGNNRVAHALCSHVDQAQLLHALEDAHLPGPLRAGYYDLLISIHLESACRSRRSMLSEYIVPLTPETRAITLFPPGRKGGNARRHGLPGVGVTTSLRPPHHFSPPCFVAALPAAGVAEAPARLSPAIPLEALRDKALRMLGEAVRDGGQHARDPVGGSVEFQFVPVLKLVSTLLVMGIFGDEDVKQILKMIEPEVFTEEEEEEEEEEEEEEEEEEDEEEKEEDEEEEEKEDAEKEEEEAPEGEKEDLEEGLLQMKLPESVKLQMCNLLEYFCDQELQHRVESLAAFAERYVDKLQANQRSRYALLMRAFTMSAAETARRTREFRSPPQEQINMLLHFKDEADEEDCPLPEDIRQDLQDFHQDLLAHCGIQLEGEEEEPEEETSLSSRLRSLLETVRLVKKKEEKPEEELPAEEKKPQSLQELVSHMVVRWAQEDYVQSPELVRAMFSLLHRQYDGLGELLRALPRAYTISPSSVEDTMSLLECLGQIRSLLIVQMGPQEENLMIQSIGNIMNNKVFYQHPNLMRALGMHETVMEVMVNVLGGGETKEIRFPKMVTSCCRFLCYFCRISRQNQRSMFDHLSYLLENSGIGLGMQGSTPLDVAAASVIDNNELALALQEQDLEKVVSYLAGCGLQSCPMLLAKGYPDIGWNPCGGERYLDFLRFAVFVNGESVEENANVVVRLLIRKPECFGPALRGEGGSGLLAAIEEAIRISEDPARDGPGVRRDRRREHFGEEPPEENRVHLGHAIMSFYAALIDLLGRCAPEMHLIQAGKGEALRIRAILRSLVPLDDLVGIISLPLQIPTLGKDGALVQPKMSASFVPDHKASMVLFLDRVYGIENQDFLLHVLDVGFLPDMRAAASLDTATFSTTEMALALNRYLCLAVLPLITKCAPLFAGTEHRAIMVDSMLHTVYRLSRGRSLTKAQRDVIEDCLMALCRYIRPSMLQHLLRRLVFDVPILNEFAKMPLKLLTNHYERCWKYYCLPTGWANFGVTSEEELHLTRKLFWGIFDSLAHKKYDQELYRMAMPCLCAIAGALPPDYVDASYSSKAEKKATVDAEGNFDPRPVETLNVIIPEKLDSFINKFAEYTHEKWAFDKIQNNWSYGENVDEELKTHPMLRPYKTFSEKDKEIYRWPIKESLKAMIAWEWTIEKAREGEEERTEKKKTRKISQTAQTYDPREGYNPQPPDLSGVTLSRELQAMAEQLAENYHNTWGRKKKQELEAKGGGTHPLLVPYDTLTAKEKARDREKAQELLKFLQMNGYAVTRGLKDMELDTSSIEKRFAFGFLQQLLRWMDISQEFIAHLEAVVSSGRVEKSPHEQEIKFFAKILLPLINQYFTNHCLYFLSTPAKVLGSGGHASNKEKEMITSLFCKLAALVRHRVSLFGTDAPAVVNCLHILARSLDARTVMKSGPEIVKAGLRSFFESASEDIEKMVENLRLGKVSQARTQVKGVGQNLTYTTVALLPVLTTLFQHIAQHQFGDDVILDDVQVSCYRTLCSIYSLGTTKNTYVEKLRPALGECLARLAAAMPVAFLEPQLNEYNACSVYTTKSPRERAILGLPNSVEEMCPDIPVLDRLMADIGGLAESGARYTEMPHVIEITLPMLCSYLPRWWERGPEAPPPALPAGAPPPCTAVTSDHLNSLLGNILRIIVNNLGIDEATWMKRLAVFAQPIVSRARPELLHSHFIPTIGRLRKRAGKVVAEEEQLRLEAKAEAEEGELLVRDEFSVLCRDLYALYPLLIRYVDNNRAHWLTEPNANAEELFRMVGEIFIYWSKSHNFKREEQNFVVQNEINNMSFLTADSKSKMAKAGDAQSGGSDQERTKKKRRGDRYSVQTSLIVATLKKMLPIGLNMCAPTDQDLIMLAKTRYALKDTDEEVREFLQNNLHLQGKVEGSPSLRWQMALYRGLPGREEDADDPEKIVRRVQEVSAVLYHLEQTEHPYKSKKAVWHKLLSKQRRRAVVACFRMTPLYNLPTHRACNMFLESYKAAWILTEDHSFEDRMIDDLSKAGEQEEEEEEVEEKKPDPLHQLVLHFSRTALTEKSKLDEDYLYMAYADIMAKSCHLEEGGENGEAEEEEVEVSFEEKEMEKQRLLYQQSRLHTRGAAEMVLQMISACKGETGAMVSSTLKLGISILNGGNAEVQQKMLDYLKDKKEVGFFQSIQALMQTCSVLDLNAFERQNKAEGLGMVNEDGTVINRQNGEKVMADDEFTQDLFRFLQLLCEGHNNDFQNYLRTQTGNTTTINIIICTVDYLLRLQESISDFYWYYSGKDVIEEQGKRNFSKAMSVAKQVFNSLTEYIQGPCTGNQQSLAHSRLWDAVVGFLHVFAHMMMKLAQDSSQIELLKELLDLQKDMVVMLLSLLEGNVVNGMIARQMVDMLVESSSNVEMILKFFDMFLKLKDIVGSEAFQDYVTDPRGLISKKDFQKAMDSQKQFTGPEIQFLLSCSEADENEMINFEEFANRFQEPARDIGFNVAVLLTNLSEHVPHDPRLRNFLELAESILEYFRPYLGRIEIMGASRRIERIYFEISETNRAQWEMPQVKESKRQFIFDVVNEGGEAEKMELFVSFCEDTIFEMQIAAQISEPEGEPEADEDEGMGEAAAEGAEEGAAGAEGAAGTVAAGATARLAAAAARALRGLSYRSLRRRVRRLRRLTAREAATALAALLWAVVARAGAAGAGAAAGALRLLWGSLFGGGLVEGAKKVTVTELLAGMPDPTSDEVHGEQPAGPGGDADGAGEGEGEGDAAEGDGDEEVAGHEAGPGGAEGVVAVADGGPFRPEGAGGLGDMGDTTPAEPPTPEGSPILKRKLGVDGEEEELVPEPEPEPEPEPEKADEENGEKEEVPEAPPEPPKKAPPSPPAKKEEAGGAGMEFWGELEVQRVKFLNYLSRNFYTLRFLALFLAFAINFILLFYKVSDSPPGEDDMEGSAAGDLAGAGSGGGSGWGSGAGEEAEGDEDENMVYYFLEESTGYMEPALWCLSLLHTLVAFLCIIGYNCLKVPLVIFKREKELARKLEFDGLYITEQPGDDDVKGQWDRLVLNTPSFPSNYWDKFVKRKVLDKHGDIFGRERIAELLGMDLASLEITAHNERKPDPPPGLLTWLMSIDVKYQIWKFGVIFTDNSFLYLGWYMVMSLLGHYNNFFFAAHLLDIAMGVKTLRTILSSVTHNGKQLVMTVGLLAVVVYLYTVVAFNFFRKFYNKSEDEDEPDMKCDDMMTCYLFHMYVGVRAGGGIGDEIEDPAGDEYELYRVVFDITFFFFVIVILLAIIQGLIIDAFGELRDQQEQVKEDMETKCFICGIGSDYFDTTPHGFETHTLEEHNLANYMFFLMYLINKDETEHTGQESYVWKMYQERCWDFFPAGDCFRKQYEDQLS

Q: How did the pEC50 [1] turn out when FC(F)OC(Cl)C(F)(F)F (centres unmarked) [isoflurane] was run?
A: Its pEC50 is 3.69.

Q: And the “intracellular calcium assay in HEK 293 cells; response lost in M4003F” value (mouse RyR1(WT))?
A: The value was “mouse RyR1(WT) was sensitive to isoflurane, as expected, whereas mouse RyR1(M4003F) was not activated by isoflurane”.

Q: FCOC(C(F)(F)F)C(F)(F)F [sevoflurane] was tested. Which “intracellular calcium assay in HEK 293 stable cell line; response lost in M4000F” value [2] did it give?
A: The value was “sevoflurane, an inhaled anesthetic with clinical use, activated RyR1 but not RyR2 and RyR3”.

Q: How did the pEC50 [3] turn out when FC(F)(F)C(Cl)Br (centres unmarked) [halothane] was run?
A: The pEC50 was 3.54.

Q: How did the pEC50 [4] turn out when Oc1ccc(Br)cc1 [4-BP, 4-bromophenol] was run?
A: Its pEC50 is 5.33.

Q: CCc1ccc(O)cc1 [4-EP, 4-ethylphenol] was tested. Which pEC50 [5] did it give?
A: Its pEC50 is 4.62.

Q: Which results are given for Cc1ccc(O)cc1 [4-MP, 4-methylphenol]?
A: intracellular calcium assay in HEK 293 cells; selectivity over M4000F [6]: 4-methylphenol (4-MP) and 4-ethylphenol (4-EP), phenolic chemicals with a methyl or ethyl residue; pEC50 [5]: 4.51

Q: Cc1cc(O)ccc1Cl [4-CmC, 4-chloro-m-cresol] was tested. Which “intracellular calcium assay in HEK 293T cells with RyR1 WT and point mutants” value [7] did it give?
A: Its value is “substitution of phenylalanine with alanine (F4062A) substantially reduced the sensitivities to both 4-CmC and isoflurane”.

Q: Which “intracellular calcium assay in HEK 293 stable cell lines; selective over M4000F,” value [8] does the source give for Oc1cccc(Br)c1 [3-BP, 3-bromophenol] here?
A: The value was 3-bromophenol (3-BP) has higher selectivity for RyR1(WT) than RyR1(M4000F), RyR2, or RyR3.

Q: How did the “intracellular calcium assay in HEK 293 cells; caffeine-site point mutants” value [9] turn out when Cn1c(=O)c2c(ncn2C)n(C)c1=O [caffeine] was run?
A: Its value is “RyR1(W4716I), RyR1(W4716L), and RyR1(F3753A) were insensitive to caffeine but were activated by isoflurane”.
